Assay results as given in patent publication US12162888B2, “Carboxamides as ubiquitin-specific protease inhibitors” (Valo Early Discovery, Inc., priority 2018, dated 2024).

Molecular target: T1, USP28 (His-tagged USP28-FL-mammalian) (Homo sapiens, UniProt Q96RU2)
T1 construct: Expression of USP28 (1-1077)-TEV-6*His (pTT5 vector) was carried out in Expi293f cells; made in house; host or cells: Expi293F cells (pTT5 vector)
T1 sequence (Q96RU2 1-1077): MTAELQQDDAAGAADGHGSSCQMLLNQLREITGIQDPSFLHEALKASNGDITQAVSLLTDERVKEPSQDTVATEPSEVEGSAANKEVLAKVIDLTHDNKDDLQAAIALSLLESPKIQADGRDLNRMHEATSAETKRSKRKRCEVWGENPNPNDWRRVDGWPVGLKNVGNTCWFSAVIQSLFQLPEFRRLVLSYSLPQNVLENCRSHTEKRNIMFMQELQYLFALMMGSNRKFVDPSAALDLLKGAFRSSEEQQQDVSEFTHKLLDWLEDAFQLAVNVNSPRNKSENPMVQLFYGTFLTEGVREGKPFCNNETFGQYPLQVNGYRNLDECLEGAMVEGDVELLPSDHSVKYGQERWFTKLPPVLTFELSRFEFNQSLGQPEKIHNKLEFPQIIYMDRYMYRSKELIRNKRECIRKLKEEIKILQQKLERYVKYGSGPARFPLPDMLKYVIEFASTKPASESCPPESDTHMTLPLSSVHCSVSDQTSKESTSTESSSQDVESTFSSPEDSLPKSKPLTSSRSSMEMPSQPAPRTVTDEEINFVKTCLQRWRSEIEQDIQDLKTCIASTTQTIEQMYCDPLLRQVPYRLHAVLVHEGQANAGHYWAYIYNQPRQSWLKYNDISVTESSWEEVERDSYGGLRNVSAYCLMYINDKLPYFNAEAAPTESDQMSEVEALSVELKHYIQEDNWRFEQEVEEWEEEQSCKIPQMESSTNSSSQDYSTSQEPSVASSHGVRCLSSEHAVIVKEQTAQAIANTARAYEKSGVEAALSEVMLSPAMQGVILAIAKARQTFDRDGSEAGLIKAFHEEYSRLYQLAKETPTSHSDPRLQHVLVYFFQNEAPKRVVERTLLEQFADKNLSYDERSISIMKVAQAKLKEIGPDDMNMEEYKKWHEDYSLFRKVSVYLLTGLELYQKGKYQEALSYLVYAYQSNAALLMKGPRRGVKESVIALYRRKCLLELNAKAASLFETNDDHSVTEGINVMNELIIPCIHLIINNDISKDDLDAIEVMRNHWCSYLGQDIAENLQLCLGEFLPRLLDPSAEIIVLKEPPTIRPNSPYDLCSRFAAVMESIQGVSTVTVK
Assay: Ubiquitin-Rhodamine 110 Assay for USP28 Activity, Example A-1(a)
Type: biochemical
Conditions: biochemical IC50 range, Ubiquitin-Rhodamine 110 assay, read-out: USP28 A-1(a)
Method in brief: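 Full-length His-tagged human USP28 (1-1077), expressed in Expi293F cells, was used at […] with 25 nM Ub-Rh110 (<<Km) in 20 mM Tris pH 8.0, 3 mM BME, 0.03% BGG and 0.01% Triton X-100. Compounds (25 μM-1.3 nM, 10-point) were preincubated with enzyme for 30 min, and the reaction ran 45 min at room temperature before a citric acid stop. Fluorescence was read at 485/535 nm, and IC50 came from 4-parameter fits of percent inhibition.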

For `Cc1ccc2c(N)c(C(=O)N[C@H]3COc4cc(N5C[C@@H](N)[C@@](C)(CF)C5)ccc4C3)sc2n1` [Example 660, 3-amino-N-[(3R)-7-[(3S,4S)-4-amino-3-(fluoromethyl)-3-methylpyrrolidin-1-yl]-3,4-dihydro-2H-1-benzopyran-3-yl]-6-methylthieno[2,3-b]pyridine-2-carboxamide], which IC50 is on record?
Its IC50 is 1 to 50 nM.

Which IC50 does the source give for `Cc1ccc2c(N)c(C(=O)N[C@H]3COc4cc(N5C[C@@H](N)[C@](C)(CF)C5)ccc4C3)sc2n1` [Example 661, 3-amino-N-[(3R)-7-[(3R,4S)-4-amino-3-(fluoromethyl)-3-methylpyrrolidin-1-yl]-3,4-dihydro-2H-1-benzopyran-3-yl]-6-methylthieno[2,3-b]pyridine-2-carboxamide] here?
The IC50 was 1 to 50 nM.

For `CN[C@H]1CN(c2ccc3c(c2)OC[C@H](NC(=O)c2sc4nc(C)ccc4c2N)C3)C[C@@H]1CF` [Example 662, 3-amino-N-[(3R)-7-[(3S,4R)-3-(fluoromethyl)-4-(methylamino)pyrrolidin-1-yl]-3,4-dihydro-2H-1-benzopyran-3-yl]-6-methylthieno[2,3-b]pyridine-2-carboxamide], which IC50 is on record?
The IC50 was 1 to 50 nM.

For `CN[C@@H]1CN(c2ccc3c(c2)OC[C@H](NC(=O)c2sc4nc(C)ccc4c2N)C3)C[C@H]1CF` [Example 663, 3-amino-N-[(3R)-7-[(3R,4S)-3-(fluoromethyl)-4-(methylamino)pyrrolidin-1-yl]-3,4-dihydro-2H-1-benzopyran-3-yl]-6-methylthieno[2,3-b]pyridine-2-carboxamide], which IC50 is on record?
The IC50 was 1 to 50 nM.

With `Cc1ccc2c(N)c(C(=O)N[C@H]3COc4cc(N5C[C@@H]6CCNC[C@@H]65)cc(F)c4C3)sc2n1` [Example 665, 3-amino-N-[(3R)-7-[(1R,6S)-3,8-diazabicyclo[4.2.0]octan-8-yl]-5-fluoro-3,4-dihydro-2H-1-benzopyran-3-yl]-6-methylthieno[2,3-b]pyridine-2-carboxamide] as the compound, how does the IC50 read?
Its IC50 is 1 to 50 nM.

For `O=C(N[C@H]1COc2cc(N3CCNCC3)ccc2C1)c1ccc(NCc2ccc(Cl)cc2Cl)nc1` [Example 697, 6-{[(2,4-dichlorophenyl)methyl]amino}-N-[(3R)-7-(piperazin-1-yl)-3,4-dihydro-2H-1-benzopyran-3-yl]pyridine-3-carboxamide], which IC50 is on record?
Its IC50 is 1 to 50 nM.

With `O=C(N[C@H]1COc2cc(N3CCNCC3)ccc2C1)c1ccc(NCc2cccc3cn[nH]c23)nc1` [Example 698, 6-{[(1H-indazol-7-yl)methyl]amino}-N-[(3R)-7-(piperazin-1-yl)-3,4-dihydro-2H-1-benzopyran-3-yl]pyridine-3-carboxamide] as the compound, how does the IC50 read?
Its IC50 is 200 to 2000 nM.

How did the IC50 turn out when `O=C(N[C@H]1COc2cc(N3CCNCC3)ccc2C1)c1ccc(NCc2cccc(Cl)c2Cl)nc1` [Example 699, 6-{[(2,3-dichlorophenyl)methyl]amino}-N-[(3R)-7-(piperazin-1-yl)-3,4-dihydro-2H-1-benzopyran-3-yl]pyridine-3-carboxamide] was run?
The IC50 was 1 to 50 nM.
